Earlier results on one compound are cited in US6426091B1, “Sustained-release theophylline tablet” (Nikken Chemicals Co., Ltd., priority 1997, dated 2002).

For the compound `Cn1c(=O)c2[nH]cnc2n(C)c1=O` [Theophylline], under “adults”, the biological half-life entry was “about 6 hours”. In addition, the “concentration in the blood above which serious side effects (cardiovascular system, central nervous system) sometimes appear” value (background art) is “exceeds 20 μg/ml”.
